Experiment: molar heat capacity at constant pressure
Settings: 101.33 kPa, Crystal, Small (less than 1 g) adiabatic calorimetry

[Ba+2].[Ce+4].[O-2].[O-2].[O-2] [barium cerium(IV) oxide]
Settings | molar heat capacity at constant pressure [J/K/mol]
1.721 K | 0.00113
1.726 K | 0.00106
1.733 K | 0.00113
1.761 K | 0.00102
1.781 K | 0.00108
1.833 K | 0.00116
1.87 K | 0.00103
1.904 K | 0.00103
1.995 K | 0.00167
2.042 K | 0.00152
2.096 K | 0.00138
2.134 K | 0.00153
2.178 K | 0.0019
2.817 K | 0.00505
2.844 K | 0.00578
2.877 K | 0.0056
3.154 K | 0.00691
3.175 K | 0.00697
3.25 K | 0.00798
3.258 K | 0.00871
3.318 K | 0.00829
3.349 K | 0.00913
3.382 K | 0.00944
3.471 K | 0.0093
3.57 K | 0.01
3.673 K | 0.0107
3.834 K | 0.0118
3.983 K | 0.0132
4.14 K | 0.0143
4.241 K | 0.0157
4.384 K | 0.0171
4.454 K | 0.0187
4.608 K | 0.0193
4.68 K | 0.0211
4.756 K | 0.0223
4.835 K | 0.0232
4.911 K | 0.0245
4.992 K | 0.026
5.071 K | 0.0274
5.152 K | 0.0284
5.227 K | 0.0294
5.296 K | 0.0316
5.375 K | 0.0321
5.441 K | 0.0353
5.536 K | 0.0361
5.614 K | 0.0388
5.697 K | 0.0405
5.78 K | 0.0425
5.861 K | 0.0448
5.946 K | 0.0466
6.034 K | 0.0491
6.119 K | 0.0516
6.209 K | 0.0536
6.297 K | 0.0571
6.366 K | 0.057
6.457 K | 0.0616
6.548 K | 0.0639
6.647 K | 0.0675
6.739 K | 0.0705
6.841 K | 0.0743
6.93 K | 0.0778
7.04 K | 0.0831
7.13 K | 0.0857
7.24 K | 0.0907
7.34 K | 0.0935
7.45 K | 0.0993
7.55 K | 0.103
7.66 K | 0.11
7.76 K | 0.115
7.89 K | 0.123
8 K | 0.129
8.13 K | 0.138
8.25 K | 0.145
8.38 K | 0.156
8.5 K | 0.164
8.64 K | 0.176
8.77 K | 0.185
8.91 K | 0.201
9.04 K | 0.209
9.17 K | 0.221
9.32 K | 0.241
9.46 K | 0.251
9.59 K | 0.266
9.75 K | 0.289
9.92 K | 0.309
10 K | 0.318
10.08 K | 0.328
10.23 K | 0.348
10.4 K | 0.377
10.58 K | 0.4
10.76 K | 0.433
10.94 K | 0.461
11.1 K | 0.489
11.3 K | 0.534
11.48 K | 0.561
11.68 K | 0.61
11.89 K | 0.651
12.09 K | 0.7
12.29 K | 0.744
12.5 K | 0.806
12.72 K | 0.859
12.93 K | 0.919
13.15 K | 0.983
13.37 K | 1.05
13.59 K | 1.12
13.82 K | 1.2
14.05 K | 1.28
14.28 K | 1.36
14.51 K | 1.45
14.74 K | 1.54
14.97 K | 1.63
15.21 K | 1.73
15.44 K | 1.83
15.68 K | 1.93
15.91 K | 2.05
16.15 K | 2.16
16.38 K | 2.26
16.6 K | 2.38
16.84 K | 2.51
17.09 K | 2.62
17.32 K | 2.75
17.55 K | 2.89
17.79 K | 3.02
18.03 K | 3.16
18.27 K | 3.3
18.52 K | 3.44
18.76 K | 3.58
19 K | 3.73
19.23 K | 3.89
19.47 K | 4.05
19.73 K | 4.19
19.98 K | 4.35
20 K | 4.411
20.2 K | 4.52
20.44 K | 4.68
20.69 K | 4.84
20.94 K | 5
21.17 K | 5.2
21.41 K | 5.36
21.66 K | 5.54
21.91 K | 5.7
22.16 K | 5.88
22.39 K | 6.07
22.63 K | 6.26
22.88 K | 6.44
23.14 K | 6.62
23.38 K | 6.81
23.62 K | 7
23.86 K | 7.2
24.1 K | 7.39
24.36 K | 7.58
24.61 K | 7.76
24.86 K | 7.96
25.1 K | 8.19
25.34 K | 8.4
25.6 K | 8.57
25.86 K | 8.77
26.1 K | 8.98
26.34 K | 9.19
26.57 K | 9.41
26.83 K | 9.6
27.09 K | 9.8
27.35 K | 9.96
27.6 K | 10.2
27.83 K | 10.4
28.07 K | 10.7
28.33 K | 10.8
28.59 K | 10.7
28.92 K | 11.3
29.29 K | 11.6
29.83 K | 12.1
30 K | 12.33
30.39 K | 12.6
30.99 K | 13.1
31.6 K | 13.6
32.23 K | 14.1
32.89 K | 14.7
33.56 K | 15.3
34.26 K | 15.9
34.97 K | 16.5
35.7 K | 17.1
36.44 K | 17.8
37.19 K | 18.4
37.95 K | 19.1
38.72 K | 19.8
39.5 K | 20.4
40 K | 21.08
40.3 K | 21.1
41.1 K | 21.8
41.92 K | 22.5
42.76 K | 23.2
43.61 K | 24
44.48 K | 24.7
45.36 K | 25.5
46.27 K | 26.2
47.24 K | 26.9
48.19 K | 27.7
49.16 K | 28.5
50 K | 29.66
50.15 K | 29.4
51.15 K | 30.2
52.16 K | 31
53.16 K | 31.8
54.16 K | 32.6
55.16 K | 33.5
56.16 K | 34.3
57.16 K | 35.1
58.15 K | 35.9
59.14 K | 36.7
60 K | 37.42
60.13 K | 37.4
61.12 K | 38.2
62.11 K | 39
63.1 K | 39.7
64.09 K | 40.5
65.08 K | 41.3
66.07 K | 42
67.07 K | 42.8
68.06 K | 43.6
69.05 K | 44.3
70 K | 44.66
70.05 K | 45
71.04 K | 45.8
72.03 K | 46.6
73.03 K | 47.3
74.02 K | 47.8
75.02 K | 48.6
76.02 K | 49.2
77.02 K | 49.9
78.02 K | 50.6
79.01 K | 50.7
80 K | 51.2
80.01 K | 51.5
80.29 K | 51
81.69 K | 51.5
82.49 K | 52
83.31 K | 52.5
84.14 K | 53.1
84.98 K | 53.7
85.82 K | 54.2
86.68 K | 54.7
87.55 K | 55.3
88.43 K | 55.8
89.31 K | 56.3
90 K | 57.18
90.21 K | 56.9
91.11 K | 57.4
92.02 K | 58
92.94 K | 58.5
93.87 K | 59.1
94.81 K | 59.7
95.75 K | 60.2
96.71 K | 60.8
97.68 K | 61.3
98.65 K | 61.9
99.64 K | 62.4
100 K | 62.7
100.64 K | 63
101.64 K | 63.6
102.66 K | 64.1
103.69 K | 64.7
104.72 K | 65.2
105.77 K | 65.8
106.83 K | 66.4
107.9 K | 66.9
108.97 K | 67.4
110.06 K | 67.7
111.16 K | 68.5
112.27 K | 69.1
113.4 K | 69.7
114.53 K | 70.2
115.68 K | 70.8
116.83 K | 71.4
118 K | 71.9
119.18 K | 72.4
120 K | 72.61
120.37 K | 73
121.58 K | 73.5
122.79 K | 74
124.02 K | 74.6
125.26 K | 75.1
126.51 K | 75.7
127.77 K | 76.2
129.05 K | 76.8
130.34 K | 77.3
131.64 K | 77.9
132.96 K | 78.4
134.29 K | 78.9
135.63 K | 79.4
136.99 K | 79.9
138.36 K | 80.4
139.74 K | 80.9
140 K | 81.2
141.54 K | 81.6
142.95 K | 82.2
144.38 K | 82.8
145.83 K | 83.2
147.28 K | 83.8
148.76 K | 84.5
150.25 K | 85
151.75 K | 85.6
153.27 K | 86.1
154.8 K | 86.6
156.34 K | 87.3
157.91 K | 87.8
159.49 K | 88.2
160 K | 88.53
161.08 K | 88.9
162.69 K | 89.3
164.32 K | 89.9
165.96 K | 90.3
167.62 K | 90.8
169.3 K | 91.2
170.99 K | 91.8
172.7 K | 92.4
174.43 K | 92.9
176.17 K | 93.5
177.93 K | 94
179.71 K | 94.3
180 K | 94.63
181.5 K | 95.2
183.31 K | 95.3
185.15 K | 95.9
187 K | 96.4
188.86 K | 97.1
190.75 K | 97.8
192.65 K | 98
194.58 K | 98.2
196.52 K | 98.2
198.48 K | 98.6
200 K | 99.59
200.46 K | 99.2
202.45 K | 99.5
204.43 K | 100
206.42 K | 101
208.4 K | 101.1
210.39 K | 101.6
212.37 K | 101.7
214.35 K | 102.5
216.33 K | 102.8
218.31 K | 103.5
220 K | 103.6
220.3 K | 103.8
222.28 K | 103.6
224.26 K | 104.2
226.23 K | 105.1
228.22 K | 105
230.2 K | 105.5
232.17 K | 106.2
234.15 K | 106.2
236.14 K | 106.1
238.1 K | 106.8
240 K | 106.9
240.08 K | 106.6
242.05 K | 107.3
244.02 K | 107.1
245.99 K | 107.7
249.95 K | 108.3
251.89 K | 108.9
253.89 K | 109.5
255.86 K | 109.5
257.84 K | 109.2
259.8 K | 110.2
260 K | 109.9
261.77 K | 109.7
263.74 K | 110.1
267.67 K | 111
269.63 K | 110.4
271.61 K | 110.6
273.57 K | 111.4
275.53 K | 111.7
277.5 K | 111.9
279.46 K | 112.8
280 K | 112.6
281.42 K | 112.8
283.39 K | 112
285.35 K | 114
287.3 K | 114.2
289.27 K | 113.1
291.22 K | 113.8
293.17 K | 114.3
294.05 K | 113.5
297.48 K | 114.1
298.15 K | 114.8
299.16 K | 114.5
300 K | 114.9

Reference: the NIST ThermoML archive (doi:10.1016/j.tca.2006.01.020)
